Numbers after ± are expanded uncertainties.
Conditions: 101.33 kPa, Crystal, Small (less than 1 g) adiabatic calorimetry

[Ba+2].[Ce+4].[O-2].[O-2].[O-2] [barium cerium(IV) oxide]
Conditions | molar entropy [J/K/mol]
10 K | 0.084 ± 0.025
20 K | 1.242 ± 0.042
30 K | 4.425 ± 0.15
40 K | 9.136 ± 0.21
50 K | 14.71 ± 0.29
60 K | 20.8 ± 0.38
70 K | 27.13 ± 0.48
80 K | 33.51 ± 0.58
90 K | 39.88 ± 0.71
100 K | 46.2 ± 0.8
120 K | 58.56 ± 0.99
140 K | 70.43 ± 1.2
160 K | 81.77 ± 1.4
180 K | 92.55 ± 1.5
200 K | 102.8 ± 1.7
220 K | 112.5 ± 1.8
240 K | 121.7 ± 2
260 K | 130.4 ± 2.1
280 K | 138.6 ± 2.2
298.15 K | 145.8 ± 2.3
300 K | 146.6 ± 2.4

[Ba+2].[O-2].[O-2].[O-2].[Zr+4] [barium zirconium(IV) oxide]
Conditions | molar entropy [J/K/mol]
10 K | 0.053 ± 0.024
20 K | 0.666 ± 0.033
30 K | 2.753 ± 0.13
40 K | 6.284 ± 0.17
50 K | 10.7 ± 0.23
60 K | 15.67 ± 0.3
70 K | 20.91 ± 0.38
80 K | 26.27 ± 0.46
90 K | 31.67 ± 0.59
100 K | 37.05 ± 0.67
120 K | 47.64 ± 0.83
140 K | 57.88 ± 0.98
160 K | 67.72 ± 1.1
180 K | 77.16 ± 1.3
200 K | 86.23 ± 1.4
220 K | 94.92 ± 1.6
240 K | 103.2 ± 1.7
260 K | 111.2 ± 1.8
280 K | 118.8 ± 1.9
298.15 K | 125.5 ± 2
300 K | 126.2 ± 2

— the NIST ThermoML archive (doi:10.1016/j.tca.2006.01.020)
